Reference: US7396834B2, “4(Phenyl-piperazinyl-methyl) benzamide derivatives and their use for the treatment of pain or gastrointestinal disorders” (AstraZeneca AB, priority 2002, dated 2008)

Key:
cloned human δ receptors [1] = target: T1, cloned human δ receptors (Homo sapiens, UniProt P41143); test: Human δ receptor GTP[γ]35S functional assay (high expression); type: biochemical
T1 construct: expressed in transfected cells; host or cells: human HEK-293S cells, grown in suspension under geneticin selection
T1 sequence (P41143 whole entry): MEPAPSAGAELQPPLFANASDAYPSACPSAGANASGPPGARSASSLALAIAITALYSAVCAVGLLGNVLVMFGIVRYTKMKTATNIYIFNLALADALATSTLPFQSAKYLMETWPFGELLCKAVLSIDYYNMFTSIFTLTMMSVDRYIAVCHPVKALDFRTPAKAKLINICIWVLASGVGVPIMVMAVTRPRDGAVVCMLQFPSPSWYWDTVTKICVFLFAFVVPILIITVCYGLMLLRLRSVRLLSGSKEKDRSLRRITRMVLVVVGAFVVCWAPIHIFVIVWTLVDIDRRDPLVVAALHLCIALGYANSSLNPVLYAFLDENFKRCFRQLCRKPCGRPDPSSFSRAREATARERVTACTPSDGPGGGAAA
Procedure: (§1) Human 293S cells expressing cloned human κ, δ and μ receptors and neomycin resistance are grown in suspension at 37° C. and 5% CO2 in shaker flasks containing calcium-free DMEM10% FBS, 5% BCS, 0.1% Pluronic F-68, and 600 μg/ml geneticin.
Cells are pelleted and resuspended in lysis buffer (50 mM Tris, pH 7.0, 2.5 mM EDTA, with PMSF added just prior to use to 0.1 mM from a 0.1 M stock in ethanol), incubated on ice for 15 min, then homogenized with a polytron for 30 sec. The suspension is spun at 1000 g (max) for 10 min at 4° C. The supernatant is saved on ice and the pellets resuspended and spun as before. The supernatants from both spins are combined and spun at 46,000 g(max) for 30 min. The pellets are resuspended in cold Tris buffer (50 mM Tris/Cl, pH 7.0) and spun again. […] The protein concentrations are determined by a modified Lowry assay with sodium dodecyl sulfate.
The agonist activity of the compounds is measured by determining the degree to which the compounds receptor complex activates the binding of GTP to G-proteins to which the receptors are coupled. […] The EC50 and Emax values of compounds are determined from dose-response curves. […] For human δ receptor functional assays, EC50 (low) is measured when the human δ receptors used in the assay were expressed at lower levels in comparison with those used in determining EC50 (high). […]

[2] = target: T2, δ receptors in rat brain membranes (Rattus norvegicus, UniProt P33533); test: Rat brain GTPγ35S functional assay; type: biochemical
T2 construct: membranes from HEK-293S cells expressing the cloned human opioid receptors or from homogenised rat and mouse brain; from tissue; host or cells: rat brain homogenate membranes
T2 sequence (P33533 whole entry): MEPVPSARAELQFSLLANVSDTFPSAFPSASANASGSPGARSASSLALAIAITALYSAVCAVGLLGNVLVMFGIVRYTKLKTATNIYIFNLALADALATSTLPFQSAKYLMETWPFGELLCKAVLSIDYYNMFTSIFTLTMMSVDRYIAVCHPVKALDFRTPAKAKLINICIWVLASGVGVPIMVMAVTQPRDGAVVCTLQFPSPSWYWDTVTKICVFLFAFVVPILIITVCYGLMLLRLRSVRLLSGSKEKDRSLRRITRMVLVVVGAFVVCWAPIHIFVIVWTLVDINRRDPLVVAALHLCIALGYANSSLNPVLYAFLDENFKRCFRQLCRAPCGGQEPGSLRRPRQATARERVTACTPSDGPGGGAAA
Procedure: Rat brains are weighed and rinsed in ice-cold PBS (containing 2.5 mM EDTA, pH 7.4). The brains are homogenized with a polytron for 30 sec (rat) in ice-cold lysis buffer (50 mM Tris, pH 7.0, 2.5mM EDTA, with phenylmethylsulfonyl fluoride added just prior use to […] from a 0.5M stock in DMSO:ethanol).
The agonist activity of the compounds is measured by determining the degree to which the compounds receptor complex activates the binding of GTP to G-proteins to which the receptors are coupled. In the GTP binding assay, GTP[γ]^35S is combined with test compounds and membranes from HEK-293S cells expressing the cloned human opioid receptors or from homogenised rat and mouse brain. Agonists stimulate GTP[γ]^35S binding in these membranes. The EC50 and Emax values of compounds are determined from dose-response curves. […] For human δ receptor functional assays, EC50 (low) is measured when the human δ receptors used in the assay were expressed at lower levels in comparison with those used in determining EC50 (high). […]
Rat brain membranes are thawed at 37° C., passed 3 times through a 25-gauge blunt-end needle and diluted in the GTPYS binding (50 mM Hepes, 20 mM NaOH, 100 mM NaCl, 1 mM EDTA, 5 mM MgCl2, pH 7.4, Add fresh: 1 mM DTT, 0.1% BSA). […] The basal and maximal stimulated binding are determined in absence and presence of 3 μM SNC-80.

cloned human δ receptors [3] = target: T1, cloned human δ receptors; test: Human δ receptor radioligand binding assay
cloned human μ receptors = target: T3, cloned human μ receptors (Homo sapiens, UniProt P35372); test: Human μ receptor radioligand binding assay
T3 construct: expressed in transfected cells; host or cells: human HEK-293S cells, grown in suspension under geneticin selection
T3 sequence (P35372 whole entry): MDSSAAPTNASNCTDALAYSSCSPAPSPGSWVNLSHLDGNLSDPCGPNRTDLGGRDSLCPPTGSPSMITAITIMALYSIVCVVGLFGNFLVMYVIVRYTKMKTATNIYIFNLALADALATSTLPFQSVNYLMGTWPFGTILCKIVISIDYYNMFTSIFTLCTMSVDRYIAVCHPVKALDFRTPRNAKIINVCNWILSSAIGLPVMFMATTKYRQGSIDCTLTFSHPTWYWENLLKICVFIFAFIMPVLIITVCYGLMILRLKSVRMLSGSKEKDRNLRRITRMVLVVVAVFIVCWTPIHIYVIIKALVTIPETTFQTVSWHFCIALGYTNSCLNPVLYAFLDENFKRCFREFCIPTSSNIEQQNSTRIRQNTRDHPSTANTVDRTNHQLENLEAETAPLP

cloned human κ receptors = cloned human κ receptors (Homo sapiens, UniProt P41145); test: Human κ receptor radioligand binding assay; settings: membranes of human 293S cells; Table 1
cloned human κ receptors, sequence (P41145 whole entry): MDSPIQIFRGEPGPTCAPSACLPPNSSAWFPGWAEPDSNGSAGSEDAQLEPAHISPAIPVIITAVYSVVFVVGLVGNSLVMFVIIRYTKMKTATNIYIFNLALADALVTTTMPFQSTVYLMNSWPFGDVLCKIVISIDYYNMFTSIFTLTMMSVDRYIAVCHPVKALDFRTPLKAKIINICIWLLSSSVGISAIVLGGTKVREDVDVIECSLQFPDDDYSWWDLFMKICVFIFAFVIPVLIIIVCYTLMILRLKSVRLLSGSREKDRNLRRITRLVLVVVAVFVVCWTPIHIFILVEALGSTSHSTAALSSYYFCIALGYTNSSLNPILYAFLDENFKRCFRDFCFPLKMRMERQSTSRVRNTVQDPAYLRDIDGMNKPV

cloned human δ receptors [4] = target: T1, cloned human δ receptors; test: Human δ receptor GTP[γ]35S functional assay (low expression); type: biochemical; settings: for Emax: relative to SNC80, lower expression level, range over the listed compounds
Procedure: as §1
Cells are pelleted and resuspended in lysis buffer (50 mM Tris, pH 7.0, 2.5 mM EDTA, with PMSF added just prior to use to 0.1 mM from a 0.1 M stock in ethanol), incubated on ice for 15 min, then homogenized with a polytron for 30 sec. The suspension is spun at 1000 g (max) for 10 min at 4° C. The supernatant is saved on ice and the pellets resuspended and spun as before. The supernatants from both spins are combined and spun at 46,000 g(max) for 30 min. The pellets are resuspended in cold Tris buffer (50 mM Tris/Cl, pH 7.0) and spun again. The final pellets are resuspended in membrane buffer (50 mM Tris, 0.32 M sucrose, pH 7.0). Aliquots (1 ml) in polypropylene tubes are frozen in dry ice/ethanol and stored at −70° C. until use. The protein concentrations are determined by a modified Lowry assay with sodium dodecyl sulfate.
The agonist activity of the compounds is measured by determining the degree to which the compounds receptor complex activates the binding of GTP to G-proteins to which the receptors are coupled. In the GTP binding assay, GTP[γ]^35S is combined with test compounds and membranes from HEK-293S cells expressing the cloned human opioid receptors or from homogenised rat and mouse brain. Agonists stimulate GTP[γ]^35S binding in these membranes. The EC50 and Emax values of compounds are determined from dose-response curves. Right shifts of the dose response curve by the delta antagonist naltrindole are performed to verify that agonist activity is mediated through delta receptors. For human δ receptor functional assays, EC50 (low) is measured when the human δ receptors used in the assay were expressed at lower levels in comparison with those used in determining EC50 (high). The Emax values were determined in relation to the standard δ agonist SNC80, i.e., higher than 100% is a compound that have better efficacy than SNC80.

[5] = Human δ IC50, Table 2, range over the listed compounds
[6] = Human μ IC50, Table 2, range over the listed compounds

Row | Structure (SMILES) | EC50 (cloned human δ receptors [1]) | Emax (cloned human δ receptors [1]; relative to standard δ agonist SNC80, higher expression level) | EC50 [2] | Emax ([2]; relative to SNC80, rat brain membranes) | IC50 (cloned human δ receptors [3]; Human δ IC50, membranes of human 293S cells, displacement of radioligand, Table 1) | IC50 (cloned human μ receptors; Human μ IC50, membranes of human 293S cells, Table 1) | IC50 (cloned human κ receptors) | IC50 (cloned human δ receptors [3]; [5]) | EC50 (cloned human δ receptors [4]) | Emax (cloned human δ receptors [4]) | IC50 (cloned human μ receptors; [6])
1 | CCN(CC)C(=O)c1ccc(C(c2cccc(C(N)=O)c2)N2CCN(Cc3ccccc3)CC2)cc1 (single isomer, unassigned) [Compound 1a, 3-[(4-[(diethylamino)carbonyl]phenyl)(4-benzyl-piperazin-1-yl)methyl]benzamide] | 0.29 nM | 101% | 0.2 nM | 170% | 0.26 nM | 7.7 nM | 112 nM |  |  |  | 
2 | CCN(CC)C(=O)c1ccc(C(c2cccc(C(=O)NC)c2)N2CCN(Cc3ccccc3)CC2)cc1 (single isomer, unassigned) [Compound 3a, 3-[[4-[(diethylamino)carbonyl]phenyl][4-(phenylmethyl)-1-piperazinyl]methyl]-N-methyl-benzamide] |  |  |  |  |  |  |  | 0.14 to 3.73 nM | 0.5 to 83 nM | 91 to 104% | 45 to 1720 nM
3 | CCN(CC)C(=O)c1ccc(C(c2cccc(C(N)=O)c2)N2CCN(Cc3ccco3)CC2)cc1 (single isomer, unassigned) [Compound 2a, 3-{(4-[(diethylamino)carbonyl]phenyl)[4-(2-furylmethyl)-piperazin-1-yl]methyl}benzamide] |  |  |  |  |  |  |  | 0.14 to 3.73 nM | 0.5 to 83 nM | 91 to 104% | 45 to 1720 nM
4 | CCN(CC)C(=O)c1ccc(C(c2cccc(C(N)=O)c2)N2CCN(Cc3ccccc3)CC2)cc1 (single isomer, unassigned) [Compound 1b, 3-[(4-[(diethylamino)carbonyl]phenyl)(4-benzyl-piperazin-1-yl)methyl]benzamide] |  |  |  |  |  |  |  | 0.14 to 3.73 nM | 0.5 to 83 nM | 91 to 104% | 45 to 1720 nM
